Results on 10 compounds are retold here after ChEMBL document CHEMBL1149936, “Discovery of selective dopamine D3 ligands: II. 2-[4-[3-(4-aryl-1-piperazinyl)propoxy]phenyl]benzimidazole partial agonists” (Bioorg Med Chem Lett, 1995).

One test deals with D(2) dopamine receptor (Homo sapiens, UniProt P14416). In words: Binding affinity towards cloned human Dopamine D2 receptor in CHO cells using [3H]spiperone as radioligand. Type of test: cell-based.
Another test concerns the target D(3) dopamine receptor (Homo sapiens, UniProt P35462). In words: Binding affinity towards cloned human Dopamine D3 receptor in CHO cells using [3H]spiperone as radioligand. Type of test: cell-based.
The subject of test [1] is Rattus norvegicus. The experiment in a line: Inhibitory effect on exploratory locomotor activity in rats at a dose of 30 mg/kg after oral administration; no effect. Type of test: functional, organism-based. Also noted: dose 30 mg/kg.
Another test concerns Mus musculus. The experiment in a line: Inhibitory effect on exploratory locomotor activity in mice after ip administration. Type of test: functional.
The test system of test [2] is Rattus norvegicus. In words: Inhibitory effect on exploratory locomotor activity in rats after ip administration. Type of test: functional.

The source made the active and inactive calls. No cut-off for these calls is given here.

Chain of D(3) dopamine receptor (P35462 whole entry): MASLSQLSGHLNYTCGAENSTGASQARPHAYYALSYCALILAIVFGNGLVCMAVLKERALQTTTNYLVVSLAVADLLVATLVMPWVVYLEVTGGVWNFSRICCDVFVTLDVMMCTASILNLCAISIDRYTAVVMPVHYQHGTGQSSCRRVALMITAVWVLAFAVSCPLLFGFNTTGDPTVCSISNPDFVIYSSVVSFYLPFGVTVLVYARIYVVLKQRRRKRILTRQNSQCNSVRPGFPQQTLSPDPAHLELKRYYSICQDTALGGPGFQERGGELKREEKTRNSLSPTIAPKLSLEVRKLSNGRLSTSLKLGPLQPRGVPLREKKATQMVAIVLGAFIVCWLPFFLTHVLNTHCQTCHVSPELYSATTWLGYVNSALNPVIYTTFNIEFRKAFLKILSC
Chain of D(2) dopamine receptor (P14416 whole entry): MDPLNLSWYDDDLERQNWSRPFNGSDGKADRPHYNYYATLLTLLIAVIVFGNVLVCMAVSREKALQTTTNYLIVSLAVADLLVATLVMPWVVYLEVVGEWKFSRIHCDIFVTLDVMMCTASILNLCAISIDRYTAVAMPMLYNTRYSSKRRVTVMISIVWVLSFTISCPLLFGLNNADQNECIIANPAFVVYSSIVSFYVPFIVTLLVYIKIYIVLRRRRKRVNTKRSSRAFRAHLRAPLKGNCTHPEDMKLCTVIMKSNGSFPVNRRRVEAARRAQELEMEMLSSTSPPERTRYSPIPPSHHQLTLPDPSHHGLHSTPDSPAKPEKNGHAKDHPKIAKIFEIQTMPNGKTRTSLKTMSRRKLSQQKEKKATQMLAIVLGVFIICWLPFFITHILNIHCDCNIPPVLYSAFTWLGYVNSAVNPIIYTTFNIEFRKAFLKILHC

Regarding `c1cnc(N2CCN(CCCOc3ccc(-c4nc5ccccc5[nH]4)cc3)CC2)nc1`, the Ki on D(2) dopamine receptor was found to be 269 nM.
For `Clc1ccccc1N1CCN(CCCOc2ccc(-c3nc4ccccc4[nH]3)cc2)CC1`, the values for the Ki at D(3) dopamine receptor and on D(2) dopamine receptor were 18 nM and 126 nM, respectively.
Regarding `COc1ccc(N2CCN(CCCOc3ccc(-c4nc5ccccc5[nH]4)cc3)CC2)cc1`, the values for the Ki at D(3) dopamine receptor and at D(2) dopamine receptor were 130 nM and 293 nM, respectively.
Take `CCCSc1ccccc1N1CCN(CCCOc2ccc(-c3nc4ccccc4[nH]3)cc2)CC1`: the Ki at D(2) dopamine receptor is 8 nM.
Consider `Clc1ccc(N2CCN(CCCOc3ccc(-c4nc5ccccc5[nH]4)cc3)CC2)cc1`, for which the Ki at D(3) dopamine receptor was 27 nM; at D(2) dopamine receptor it was 865 nM.
With `c1ccc(N2CCN(CCCOc3ccc(-c4nc5ccccc5[nH]4)cc3)CC2)nc1`, at D(2) dopamine receptor, the affinity corresponds to a Ki of 70 nM. That is a double-digit nanomolar value.
Regarding `COc1ccccc1N1CCN(CCCOc2ccc(-c3nc4ccccc4[nH]3)cc2)CC1`, the figures for the Ki at D(3) dopamine receptor and at D(2) dopamine receptor were 1.7 nM and 8.8 nM, respectively.
Consider `c1ccc(N2CCN(CCCOc3ccc(-c4nc5ccccc5[nH]4)cc3)CC2)cc1`, for which, in the test with Rattus norvegicus [1], the ED50 result was “inactive”. In addition, the values for the Ki on D(3) dopamine receptor and at D(2) dopamine receptor were 1.5 nM and 406 nM, respectively. Besides, the ED50 in the test on Mus musculus worked out at 2.3 mg/kg; in the test with Rattus norvegicus [2], 7.1 mg/kg.
For `Clc1cccc(N2CCN(CCCOc3ccc(-c4nc5ccccc5[nH]4)cc3)CC2)c1`, the Ki at D(3) dopamine receptor came to 155 nM; at D(2) dopamine receptor, 1400 nM.
Taken in the same sequence, the figures for `CN1CCN(CCCOc2ccc(-c3nc4ccccc4[nH]3)cc2)CC1` were 2000 nM and greater than 3330 nM.

As a reminder, the Ki is the dissociation constant of the complex between target and ligand, obtained from inhibition or displacement. A lower Ki goes with higher affinity. As a reminder, the ED50 is the dose that gives a 50% effect, or the effect in half of the subjects.
